Three compounds from patent US9212205B2, “Nucleic acid binding compounds and methods of use” (University of Rochester, priority 2007, dated 2015) can be followed below.

Where two headings read alike, the source gives them in different places.

In the assay the target is HIV-1 frameshift-inducing RNA stem-loop (SEQ ID NO:1). Kind of assay: Fluorescence titration of Cy-3 labeled HIV-1 RNA stem-loop. It is filed as binding. Particulars: stem-loop 4 × 10^−7 M, PBS buffer, 25° C. The procedure: The binding of dicarba analogs to the HIV-1 frameshift-inducing RNA was measured using fluorescence spectroscopy. Fluorescence titrations were performed on a Varian Cary eclipse fluorescence spectrophotometer using 1 cm path-length quartz fluorescence cell. The solution of Cy-3 labeled HIV-1 RNA stem-loop in PBS buffer (400 μL, 400 nM) was taken in the cell and excited with a wavelength of 550 nm. A PMT voltage of 715 V was used for collecting the fluorescence data and the emission spectrum was collected from 555 to 600 nm wavelength range. The ligand solution in PBS buffer was added to the target RNA in the cell in either 2 or 4 μL increments and was allowed to equilibrate for 10 minutes before recording the emission spectrum. Statistical analysis of the data was carried out using Origin 7 (OriginLab corporation). Binding constants were determined by fitting the data to one-site binding model equation.
A 5′-Cy3 labeled upper stem-loop of HIV-1 RNA (SEQ ID NO:1) was titrated with increasing amount of the dicarba analogs in a phosphate buffer (PBS, pH 7.4) using the same protocol to that described in Example 3 above. The fluorescence intensity of the labeled RNA stem-loop decreased as a function of the ligand concentration. […] Normally, one would expect a greater difference between the affinities of the two isomers.
To further evaluate the binding selectivity of dicarba analogs to the frameshift-inducing stem-loop, fluorescence titrations were repeated in the presence of twenty-fold excess concentration of yeast tRNA. […] In an interesting result it was discovered that the monomeric compound (5) also bound to the HIV-1 RNA stem-loop with similar affinity as that of the other analogs, but the binding affinity was diminished in the presence of tRNA. […] Quinoline is a known intercalator of nucleotide bases and has the capability to interact with RNA non-specifically. But it is the peptidic part of the molecule in ligands 5-5 E and 5-5 Z that imparts specificity to the interaction between the ligand and the RNA stem-loop. The peptidic part on monomer 5 is insufficient to impart specificity to the interaction as evident from the results.

[1] abbreviates: 8 μM tRNA (twenty-fold excess), read-out: Binding Affinity (Kd) in the presence of excess yeast tRNA.
Setting [2] is: fluorescence titration, read-out: Binding Affinity (Kd).

In the case of `CCc1nc2ccccc2cc1C(=O)N[C@@H](C/C=C/C[C@H](NC(=O)c1cc2ccccc2nc1CC)C(=O)N1CCC[C@H]1C(=O)N[C@@H](Cc1ccccc1)C(=O)NCCCN)C(=O)N1CCC[C@H]1C(=O)N[C@@H](Cc1ccccc1)C(=O)NCCCN` [dimer 5-5 E], the equilibrium dissociation constant (Kd) is, setting by setting: under setting [1], 450 ± 90 nM; under setting [2], 410 ± 20 nM.

Turning to `CCc1nc2ccccc2cc1C(=O)N[C@@H](C/C=C\C[C@H](NC(=O)c1cc2ccccc2nc1CC)C(=O)N1CCC[C@H]1C(=O)N[C@@H](Cc1ccccc1)C(=O)NCCCN)C(=O)N1CCC[C@H]1C(=O)N[C@@H](Cc1ccccc1)C(=O)NCCCN` [dimer 5-5 Z], the Kd under setting [1] was found to be 290 nM and the Kd under setting [2] worked out at 240 ± 50 nM.

As for `C=CC[C@H](NC(=O)c1cc2ccccc2nc1CC)C(=O)N1CCC[C@H]1C(=O)N[C@@H](Cc1ccccc1)C(=O)NCCCN` [monomer 5], the “Binding Affinity (Kd) in the presence of excess yeast tRNA” value (8 μM tRNA (twenty-fold excess)) is “No binding”. Also, under setting [2], the Kd came out at 370 ± 20 nM.

As usually defined, the Kd is the concentration at which binding is half-saturated.
